From patent US20100237530A1, “COMPRESSED PREPARATION” (Daiichi Sankyo Company, Limited, priority 2006, published 2010)

Test: Dissolution Test (Paddle Method), Method 2 of the Japanese Pharmacopoeia 14th Revised Edition
Type: physicochemical
Details: dissolution rate of olmesartan medoxomil, paddle 50 revolutions per minute, 900 mL JP-2, absorptiometry, average of two tablets
Protocol: Dissolution properties were measured for the drug products as obtained in the Examples and Comparative Examples by the following method, and the results are shown in the Table.
Testing was carried out in accordance with Method 2 of the Dissolution Test (Paddle Method) described in the 14th Revised Edition of the Japanese Pharmacopoeia, at the paddle revolution speed of 50 revolutions per minute and using 900 mL of Japanese Pharmacopoeia Solution 2 (JP-2) for the test solution. The test solution was sampled at 30 minutes and 60 minutes after the start of testing, and the dissolution rate of olmesartan medoxomil was measured by absorptiometry. [Toyama Sangyo Co., Ltd.: DISSOLUTION TESTER NTR-6000, Shimadzu Corporation: SPECTROPHOTOMETER UV-1600] Tests were carried out for two tablets, and average values are shown.

## CCCc1nc(C(C)(C)O)c(C(=O)OCc2oc(=O)oc2C)n1Cc1ccc(-c2ccccc2-c2nnn[nH]2)cc1 [Comparative Example C-3, Olmesartan medoxomil]
Sampled at 30 minutes
  Dissolution rate (%) After 30 minutes: 60.0%
Sampled at 60 minutes
  Dissolution rate (%) After 60 minutes: 68.4%
